According to patent publication US6528525B1, “Amidocarboxylic acid derivatives” (Sankyo Company, Limited, priority 1998, dated 2003):

System: hyperglycemic male KK mice
Experiment: Action in depressing blood glucose (Method 1)
Type: in vivo
Details: compound admixed with powder feed at 0.01% (ca. 10 mg/kg/day) for three days, plasma glucose vs control group; for inhibition in vivo at 10 mg/kg/day: Mus musculus, po, 72 h, read-out: Rate of hypoglycemic activity (%) (blood glucose depression rate)
Experimental: Action in Depressing Blood Glucose (Method 1)
Each compound, admixed with powder feed F-2 (Funabashi Farm) was administered to hyperglycemic male KK mice each having a body weight of 40 g or more at a rate of 0.01% (ca. 10 mg/kg/day) for three days. Meanwhile, mice of a control group were fed with the powder feed only. Then, a blood sample was collected from the caudal vein of each mouse under no anesthesia and centrifuged. The blood glucose in the plasma thus obtained was determined using Glucoloader F (Product of A & T Co., Ltd.).
The blood glucose depression rate were estimated from the following equation:
Blood glucose depression rate (%)=[(Blood glucose in Control group−Blood glucose in administered group)/Blood glucose in Control group]×100

| Structure (SMILES) | inhibition in vivo at 10 mg/kg/day [%] | Rate of hypoglycemic activity (%) (blood glucose depression rate) |
| --- | --- | --- |
| CCOC(Cc1ccc(OCCNC(=O)c2ccc(-c3ccccn3)cc2)cc1)C(=O)O (stereo not drawn) [Example 2, Sodium 2-ethoxy-3-[4-[2-(4-pyridine-2-ylbenzoylamino)ethoxy]phenyl]propionate] | 43 |  |
| O=C(NCCOc1ccc(CC(CCCc2ccccc2)C(=O)O)cc1)c1ccc(-c2ccccn2)cc1 (stereo not drawn) [Example 4, 2-(3-phenylpropyl)-3-[4-[2-(4-pyridine-2-ylbenzoylamino)ethoxy]phenyl]propionic acid] | 15 |  |
| O=C(NCCOc1ccc(CC(Oc2ccccc2)C(=O)O)cc1)c1ccc(-c2ccccn2)cc1 (stereo not drawn) [Example 8, 2-Phenoxy-3-[4-[2-(4-pyridine-2-ylbenzoylamino)ethoxy]phenyl]propioric acid] |  | 22 |
| CC(C)c1ccc(OC(Cc2ccc(OCCNC(=O)c3ccc(-c4ccccn4)cc3)cc2)C(=O)O)cc1 (stereo not drawn) [Example 10, 2-(4-isopropylphenoxy)-3-[4-[2-(4-pyridine-2-ylbenzoylamino)ethoxy]phenyl]propionic acid] | 64 |  |
| CCCCC(Cc1ccc(OCCNC(=O)c2ccc(-c3ccccn3)cc2)cc1)C(=O)O (stereo not drawn) [Example 12, 2-butyl-3-[4-[2-(4-pyridine-2-ylbenzoylamino)ethoxy]phenyl]propionic acid] | 42 |  |
| CC(Cc1ccc(OCCNC(=O)c2ccc(-c3ccccn3)cc2)cc1)(Oc1ccccc1)C(=O)O (stereo not drawn) [Example 16, 2-Methyl-2-phenoxy-3-[4-[2-(4-pyridine-2-ylbenzoylamino)ethoxy]phenyl]propionic acid] | 64 |  |
| CC(C)c1ccc(OC(C)(Cc2ccc(OCCNC(=O)c3ccc(-c4ccccn4)cc3)cc2)C(=O)O)cc1 (stereo not drawn) [Example 18, 2-(4-Isopropylphenoxy)-2-methyl-3-[4-[2-(4-pyridine-2-ylbenzoylamino)ethoxy]phenyl]propionic acid] | 68 |  |
| CCCCC(Cc1ccc(OCCNC(=O)c2ccc(-c3ccccc3)cc2)cc1)C(=O)O (stereo not drawn) [Example 22, 3-[4-[2-(Biphenyl-4-carbonylamino)ethoxy]phenyl]-2-butylpropionic acid] | 17 |  |
| CCCCC(Cc1ccc(OCCNC(=O)c2ccc(-c3ccc(C=O)cc3)cc2)cc1)C(=O)O (stereo not drawn) [Example 27, 2-Butyl-3-[4-[2-(4′-formylbiphenyl-4-carbonylamino)ethoxy]phenyl]propionic acid] | 35 |  |
| CCCCC(Cc1ccc(OCCNC(=O)c2ccc(-c3ccc(CN(C)C)cc3)cc2)cc1)C(=O)O (stereo not drawn) [Example 29, 2-Butyl-3-[4-[2-(4′-dimethylaminomethylbiphenyl-4-carbonyl-amino)ethoxy]phenyl]propionic acid] | 20 |  |
| CCCCC(Cc1ccc(OCCNC(=O)c2ccc(-c3ccc(C(=O)O)cc3)cc2)cc1)C(=O)O (stereo not drawn) [Example 30, 2-Butyl-3-[4-[2-(4′-carboxybiphenyl-4-carbonylamino)ethoxy]phenyl]propionic acid] | 18 |  |
| CCCCC(Cc1ccc(OCCNC(=O)c2ccc(-c3cccc(OC)c3)cc2)cc1)C(=O)O (stereo not drawn) [Example 32, 2-Butyl-3-[4-[2-(3′-methoxybiphenyl-4-carbonylamino)ethoxy]phenyl]propionic acid] | 21 |  |
| CCCCC(Cc1ccc(OCCNC(=O)c2ccc(-c3cccc(O)c3)cc2)cc1)C(=O)O (stereo not drawn) [Example 34, 2-Butyl-3-[4-[2-(3′-hydroxybiphenyl-4-carbonylamino)ethoxy]phenyl]propionic acid] | 22 |  |
| CCCCC(Cc1ccc(OCCNC(=O)c2ccc(-c3ccccc3OC)cc2)cc1)C(=O)O (stereo not drawn) [Example 43, 2-Butyl-3-[4-[2-(2′-methoxybiphenyl-4-carbonylamino)ethoxy]phenyl]propionic acid] | 20 |  |
| CCCCC(Cc1ccc(OCCNC(=O)c2ccc(-c3cc(C)c(O)c(C)c3)cc2)cc1)C(=O)O (stereo not drawn) [Example 48, Sodium 2-butyl-3-[4-[2-(4′-hydroxy-3′, 5′-dimethylbiphenyl-4-carbonylamino)ethoxy]phenyl]propionate] | 37 |  |
